Test results published in patent US9011882B2, “Dimethylarginine dimethylaminohydrolase inhibitors and methods of use thereof” (The Board of Trustees of the Leland Stanford Junior …, priority 2012, dated 2015).
Entries after “also recorded” stand apart in the source; their conditions may differ.

Key:
[1] = target: T1, human DDAH1 (Homo sapiens (Human), UniProt O94760); assay: Inhibitors of human DDAH-1 validated in full dose-response curves (Table 1); assay type: biochemical; conditions: for IC50: Assay Explorer software
Description: (§1) Over 130,000 small molecules deposited in the Stanford High-throughput Bioscience Center (HTBC) were screened using the enzymatic assay to identify chemicals that regulate DDAH activity. In brief, recombinant human DDAH1 (rhDDAH1) was mixed with ADMA in the presence of screening buffer in 384-well plates using a Staccato multidrop. Small molecules (100 nL each) were then added to the wells using a robotic arrayer to yield a final compound screening concentration of up to 50 μM. Plates were incubated at 37° C. for 4 hours. Subsequently, color developing reagent (containing 2 volumes of Antipyrine and 1 volume of 2,3-Butanedione oxime reagents) was added using Velocity 11 system and the plates were sealed using an automated plate sealer. Finally, color was developed by incubating the plates at 60° C. for 90 minutes prior to spinning them at 1,500 rpm for 5 minutes. In this assay absorbance is proportional to the concentration of citrulline generated by DDAH, and was measured using an AnalystGT plate reader at 485 nm using a dichroic beamsplitter. The signal-to-noise ratio of separation was calculated using an established formula in Zhang. (Zhang, J. H., Chung, T. D. & Oldenburg, K. R. A Simple Statistical Parameter for Use in Evaluation and Validation of High Throughput Screening Assays. J Biomol Screen 4, 67-73 (1999)).
Inhibitors were defined as compounds that reduce absorbance by at least 30% compared to control wells. The hits were validated using 8-point full dose response study (50 μM to 0.39 μM in serial dilutions). […] To determine which of these hits were true inhibitors of DDAH activity, a modification of a validated secondary fluorometric assay was used, as described below. […]

[2] = target: T1, human DDAH1; assay: Fluorimetric CPM assay of DDAH activity (SMTC substrate); assay type: biochemical; conditions: for IC50: CPM assay, 100 μM SMTC, Assay Explorer software, read-out: IC50; for inhibition of DDAH activity, CPM fluorometric validation: fresh powders from vendors, vs vehicle
Description: (§2) The activity of human DDAH1 was quantified using fluorimetric assay by incubating the enzyme with an artificial substrate S-methyl-thiocitrulline (SMTC). DDAH metabolizes SMTC into L-citrulline and methanethiol (CH3—SH). The thiol released from the reaction can be monitored fluorimetrically by adding 7-Diethylamino-3-(4-maleimidophenyl)-4-methylcoumarin (CPM).
as §2, with “(SMTC), as described in Example 1.” for “(SMTC).”
For the secondary assay, a fluorimetric assay that uses SMTC as a substrate was adapted. DDAH metabolizes SMTC into L-citrulline and methanethiol (CH3—SH). In brief, DDAH (30 nM final concentration) was mixed with SMTC (100 μM final concentration), CPM (50 μM final concentration) and screening buffer (containing a final concentration of 0.01% Triton-X100 and 1 mM EDTA). The reaction mix was added to black 384-well plates to validate primary hits that modulate DDAH activity. The release of CH3—SH was monitored fluorimetrically by adding 7-Diethylamino-3-(4-maleimidophenyl)-4-methylcoumarin (CPM) as described in Linsky (Linsky, T. & Fast, W. A continuous, fluorescent, high-throughput assay for human dimethylarginine dimethylaminohydrolase-1. J Biomol Screen 16, 1089-1097 (2011)).

[3] = target: recombinant human DDAH1 (rhDDAH1) (Homo sapiens (Human), UniProt O94760); assay: Colorimetric L-citrulline assay of DDAH activity (ADMA substrate; high throughput screen and orthogonal validation); assay type: biochemical; conditions: for IC50: high throughput screen of library copies (BMF-6, BMF-7, BMF-8, MicroSource, LOPAC), dose-dependent inhibition
Description: (§3) The enzymatic activity of DDAH was monitored using a colorimetric assay that detects product (L-citrulline) formation from the substrate ADMA. In brief, recombinant human DDAH1 (rhDDAH1) was mixed with ADMA in the presence of screening buffer in 384-well plates. Plates were incubated at 37° C. for 4 hours. Subsequently, color developing reagent (containing 2 volumes of Antipyrine and 1 volume of 2,3-Butanedione oxime reagents) was added and the plates were incubated at 60° C. for 90 min prior to spinning them at 1,500 rpm for 5 min. In this assay absorbance is proportional to the concentration of citrulline generated by DDAH, and was measured using an AnalystGT plate reader at 485 nm using a dichroic beamsplitter.
as §3, with “ADMA, as described in Example 1.” for “ADMA.”, “antipyrine” for “Antipyrine”
The L-citrulline assay was based upon an original test-tube method developed by Prescott and Jones in 1969 (Prescott, L. M. & Jones, M. E. Modified methods for the determination of carbamyl aspartate. Anal Biochem 32, 408-419 (1969)), which was adapted and optimized for a microplate format. Subsequently, the activity of DDAH was quantified by detecting its conversion of ADMA to citrulline using the optimized protocol. The assay was scaled up to a 384-well format for high throughput chemical screening.
as §1
In brief, various amounts of rhDDAH1 (0.1 to 10 μM) were incubated with various concentrations of ADMA (1 μM to 8 mM) for various time points (30 min to 10 h) at room temperature or 37° C. […] The reactions were stopped and color was developed as described above followed by incubation at 60° C. for 90 min. Absorbance, proportional to DDAH activity, was measured at 485 nm±20 nm. In order to screen the entire library, the biochemical properties of the assay were optimized, as described above. The technique was modified so as to reduce the number of steps and facilitate robotic handling and throughput. Subsequently, HTS was performed using 384-well plates. […]

[4] = test system: human microvascular endothelial cells (HMEC-1); assay: Intracellular ADMA by ELISA in endothelial cells; assay type: cell-based; conditions: 20 μM, 24 hours, compared to vehicle control
Description: (§4) First, human microvascular endothelial cells (HMEC-1; ATCC) were seeded in 75 cm^2 cell culture flasks and cultured in fully supplemented DMEM (Invitrogen cat #11995; supplemented with 10% fetal bovine serum (FBS), 4 mM HEPES; GIBCO 15630 and penicillin/streptomycin). The cells were incubated at 37° C./5% CO2 until ˜60% confluency. The cells were then washed with phosphate buffered saline (PBS) and plain DMEM (DMEM with no addition of serum or the other supplements) was mixed with esomeprazole (20 μM final concentration from 100 mM stock) and added to the cells. […] After ˜4 hrs of incubation, the media was aspirated from each flask and the cells were cultured in fully supplemented DMEM as described above and incubated at 37° C./5% CO2 for another 20 hrs. The serum was initially withdrawn due to the possibility that esomeprazole would interact with Cys containing serum proteins and fail to internalize at effective concentrations.
After 24 hrs, the cells were harvested. Total cellular protein was estimated as described and ADMA was measured by enzyme-linked immunosorbent assay (ELISA) following the manufacturer's recommendations; DLD Diagnostika, Hamburg, Germany).
as §4, with “FBS,” for “fetal bovine serum (FBS),”, “PBS” for “phosphate buffered saline (PBS)”, “PD 404” for “esomeprazole”, “conc” for “concentration”, “The serum was initially withdrawn due to the possibility that esomeprazole would interact with Cys containing serum proteins and fail to internalize at effective concentrations.” left out
After 24 hours, the cells were harvested. Total cellular protein was estimated as described and ADMA was measured by ELISA following the manufacturer's recommendations; DLD Diagnostika, Hamburg, Germany).

[5] = fresh powders, FIG. 3, vs vehicle
[6] = 50 μM, compared to vehicle control

T1 sequence (O94760 whole entry): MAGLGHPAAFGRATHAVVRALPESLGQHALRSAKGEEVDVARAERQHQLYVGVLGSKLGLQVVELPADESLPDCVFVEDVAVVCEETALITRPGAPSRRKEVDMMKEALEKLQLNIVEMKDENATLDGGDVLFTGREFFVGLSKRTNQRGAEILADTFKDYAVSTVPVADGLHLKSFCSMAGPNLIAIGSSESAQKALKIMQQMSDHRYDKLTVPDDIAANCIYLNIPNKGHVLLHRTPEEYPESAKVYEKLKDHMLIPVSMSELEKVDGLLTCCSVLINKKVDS
Chain of recombinant human DDAH1 (rhDDAH1) (O94760 whole entry): as above

SMILES | Hill Slope [1] | IC50 [1] [µM] | other results
O=C1CC(N2CCCCCC2)C(=O)N1c1cccc2ccccc12 (centres unmarked) | 1.8 | 13.1 | –
O=C(O)c1ccc(N2C(=O)C=CC2=O)cc1 | 1.6 | 23.3 | –
Cc1ccc(NC(=O)/C=C/C(N)=O)cc1 | 1.1 | 21.2 | –
N/C=C1\C=C(c2ccccc2)OC1=S | 1.3 | 17.7 | –
Cc1ccc(-c2ccc(CCC(=O)O)o2)cc1 | 1.1 | 45.8 | –
Cc1cc(C)c2c(=O)n(CC(=O)NC(C)c3ccccc3)sc2n1 (centres unmarked) | 1.7 | 13.7 | –
Cc1cc(C)c2c(=O)n(CC(=O)NC3CCCC(C)C3C)sc2n1 (centres unmarked) | 1.7 | 8.6 | –
Cc1cc(C)c2c(=O)n(CC(=O)NCCCSC3CCCCC3)sc2n1 | 1.6 | 12.8 | –
CCOCCCNC(=O)Cn1sc2nc(C)cc(C)c2c1=O | 2.3 | 7.1 | –
Cc1cc(C)c2c(=O)n(CC(=O)NC(C)CCc3ccccc3)sc2n1 (centres unmarked) | 1.6 | 14.1 | –
Cc1cc(C)c2c(=O)n(CC(=O)NCc3ccc4c(c3)OCO4)sc2n1 | 1.5 | 11 | –
Cc1cc(C)c2c(=O)n(CC(=O)NCCc3ccc(Cl)cc3)sc2n1 | 1.2 | 13.4 | –
CCOc1ccc(CCNC(=O)Cn2sc3nc(C)cc(C)c3c2=O)cc1 | 1.5 | 10.5 | –
COc1ccc(OC)c(CCNC(=O)Cn2sc3nc(C)cc(C)c3c2=O)c1 | 1.5 | 9.9 | –
CCCCNC(=O)Cn1sc2nc(C)cc(C)c2c1=O | 1.7 | 5.1 | –
Cc1cc(C)c2c(=O)n(CC(=O)NCCC3=CCCCC3)sc2n1 | 2 | 11.8 | –
COCCNC(=O)Cn1sc2nc(C)cc(C)c2c1=O | 1.4 | 3.3 | –
Cc1cc(C)c2c(=O)n(CC(=O)NCc3ccccc3Cl)sc2n1 | 0.4 | 39.9 | –
COc1cnn(-c2ccccc2)c(=O)c1S [4-MMP, 4-mercapto-5-methoxy-2-phenyl-3(2H)-pyridazinone] | – | – | IC50 [2]: 12.7 µM
O=c1[nH]sc2ccccc12 [Benzo[d]isothiazol-3(2H)-one] | 1 | 13.2 | –
COc1ccc2nc([S@@+]([O-])Cc3ncc(C)c(OC)c3C)[nH]c2c1 [Esomeprazole] | – | – | inhibition of DDAH activity, orthogonal colorimetric assay [3, 5]: significantly inhibited DDAH activity; inhibition of DDAH activity, CPM fluorometric validation [2]: inhibited DDAH activity significantly; increase in intracellular ADMA [4]: ~37%
Cc1c(OCC(F)(F)F)ccnc1C[S+]([O-])c1nc2ccccc2[nH]1 (centres unmarked) [Lansoprazole] | – | – | IC50 [3]: 51 µM; inhibition of DDAH activity, CPM fluorometric validation [2]: inhibited DDAH activity significantly
N=C1Sc2ccccc2C2=NCCCN12 [PD 404] | – | – | inhibition of DDAH activity, orthogonal colorimetric assay [3, 6]: significantly inhibited DDAH activity; IC50 [3]: 8.71 µM; inhibition of DDAH activity, CPM fluorometric assay [2, 6]: directly inhibit DDAH activity; also recorded: inhibited DDAH activity significantly; increase in intracellular ADMA [4]: ~84%
COc1ccnc(C[S+]([O-])c2nc3cc(OC(F)F)ccc3[nH]2)c1OC (centres unmarked) [Pantoprazole] | – | – | IC50 [3]: 63 µM; inhibition of DDAH activity, CPM fluorometric validation [2]: inhibited DDAH activity significantly
COCCCOc1ccnc(C[S+]([O-])c2nc3ccccc3[nH]2)c1C (centres unmarked) [Rabeprazole] | – | – | inhibition of DDAH activity, orthogonal colorimetric assay [3, 5]: significantly inhibited DDAH activity; inhibition of DDAH activity, CPM fluorometric validation [2]: inhibited DDAH activity significantly
CN=c1nc(-c2ccccc2)n(-c2ccccc2)s1 [SCH-202676] | – | – | IC50 [2]: 13.3 µM
COc1ccc2[nH]c([S+]([O-])Cc3ncc(C)c(OC)c3C)nc2n1 (centres unmarked) [Tenatoprazole] | – | – | IC50 [3]: 7.8 µM; inhibition of DDAH activity, CPM fluorometric validation [2]: inhibited DDAH activity significantly
O=c1c2ccccc2[se]n1-c1ccccc1 [ebselen] | – | – | inhibition of DDAH activity, CPM fluorometric validation [2]: confirmed known DDAH inhibitors
